Reference: patent publication US20040058989A1, “Pharmaceutical composition containing citalopram” (H. Lundbeck A/S, priority 2001, published 2004)

Test: Particle size distribution by laser diffraction (Sympatec Helos)
Assay type: physicochemical
Description: As used herein, “particle size distribution” means the distribution of equivalent spherical diameters as determined by laser diffraction in a Sympatec Helos equipment. The particle size distributions for fillers and uncompacted citalopram are determined at 1 bar dispersive pressure, whereas the particle size distributions for compacted granulates are determined at 0.2 bar dispersive pressure in order to avoid deaggregation of the granules leading to erroneous results. “Median particle size”, correspondingly, means the median of said particle size distribution.

[1] = Sympatec Helos, 1 bar dispersive pressure for fillers and uncompacted citalopram, 0.2 bar for compacted granulates

Compound: CN(C)CCCC1(c2ccc(F)cc2)OCc2cc(C#N)ccc21 (centres unmarked) [Citalopram HBr]
- Particle size distribution, quantile 10% [1]: 1.2 μm
- Particle size distribution, quantile 50% (median particle size) [1]: 14.0 μm
- Particle size distribution, quantile 90% [1]: 72.3 μm
- Particle size distribution, quantile 95% [1]: 97.0 μm
- Particle size (product of the process used for preparation of citalopram hydrobromide, general statement): 2-20 μm
